# “Also recorded” adds a separate entry of the source.
# Key:
# [1] = Phase 2a study: body weight and plasma lipids; type: in vivo, human; settings: patients who responded to miricorilant treatment (FIG. 4)
# Procedure: Measures of the effectiveness of miricorilant versus placebo in reducing liver fat were assessed by magnetic resonance imaging (MRI). The change from baseline MRI measurements relative to MRI measurements taken following a course of daily miricorilant or placebo administration were assessed by magnetic resonance imaging-proton density fat fraction (MRI-PDFF). Additionally, effects of miricorilant may be assessed by measuring one or more of the following, either by comparing change from baseline after one or more days of miricorilant administration, or by comparing measurements in patients administered miricorilant versus patients administered placebo: change in liver fat assessed by MRI-PDFF; change in AST, ALT, and gamma-glutamyl transferase (GGT); change in propeptide of type III collagen (pro-C3); change in enhanced liver fibrosis (ELF) score and its components (hyaluronic acid, tissue inhibitor of metalloproteinases-1 [TIMP-1], type III procollagen [PIIINP]); change in ACTH, serum cortisol, and serum aldosterone (pharmacodynamic assessments); change in Homeostatic Model Assessment of Insulin Resistance (HOMA-IR); change in absolute body weight; and other measurements. […] For patients with diabetes, change in HbA1c and change in fasting blood glucose may be measured to assess the effects of miricorilant. […]
# Liver enzyme levels were measured in the patients.
# [2] = system: Male C57 mice; assay: High-fat diet mice: liver triglycerides and plasma AST; type: in vivo, mouse; settings: 60 mg/kg once a day oral gavage
# Procedure: Male C57 mice (n=24) were given a diet containing […] (a high-fat, “fast food” diet) for 3 weeks. Miricorilant (60 mg/kg) was administered once a day via oral gavage. Plasma aspartate aminotransferase (AST) was measured on days 3, 7, 12, and 18 and 6 mice were sacrificed each week at weeks 1, 2, and 3 for the miricorilant groups and at week 3 for the control (high-fat diet, no miricorilant) group for assessment of liver triglycerides.
# [3] = system: C57BL/6J male mice; assay: AMLN diet NASH mouse model, once per day oral dosing; type: in vivo; settings: 30 mg/kg/day orally once per day, 8 weeks
# Procedure: Two studies were conducted in C57BL/6J male mice (n=12 per group) maintained on a diet high in fat (40%), cholesterol (2%) and fructose (20%; referred to as the AMLN diet: see, e.g., Tolbol et al., World Journal of Gastroenterology, 24(2):179-194 (2018)) for 42 weeks before dosing with miricorilant was initiated. In the first study, all animals ate the AMLN diet, and received either placebo, 30 mg/kg miricorilant, or 60 mg/kg mifepristone once per day orally. […] All animals received the AMLN diet for 42 weeks prior to receiving their first dose of study drug or placebo. 4 weeks prior to receiving that first dose, a liver biopsy and histological examination of biopsy tissue was performed for each animal; 3 weeks prior to receiving that first dose, animals were randomized into three groups: control, miricorilant, or mifepristone. […] At 56 days (week 8) after initiation of drug administration, plasma ALT, AST, triglycerides, total cholesterol, and miricorilant levels were measured, and animals were sacrificed, liver necropsies were performed, liver histological ((NAFLD Activity Score, Fibrosis Stage, steatosis (scored using hematoxylin and eosin staining (HE)), col1a (scored using immunohistochemistry (IHC)) and Galectin-3 (IHC)) and liver biochemical measurements (including liver triglycerides and total cholesterol) were made, and liver and plasma samples were obtained for genetic ((e.g., RNA sequencing) and other analyses.
# Thus, in these studies, the mice were subjected to a liver biopsy approximately 4 weeks before initiation of dosing with miricorilant and only mice with confirmed fibrosis (fibrosis stage ≥1) and steatosis (score ≥2) were entered into the study. […] Body weight and food consumption were monitored throughout the study.
# Liver samples were fixed in formalin, paraffin embedded and sections were stained with hematoxylin and eosin (H&E) and Sirius Red. Samples were scored for NAS and fibrosis stage using the clinical criteria outlined by Kleiner et al., Hepatology 41:1313-1321 (2005). […]
smiles,measurement,setting,value
"O=c1[nH]c(=O)c(Cc2cccc(C(F)(F)F)c2)c([C@H]2CC[C@H](c3ccccc3)CC2)[nH]1 [miricorilant, (E)-6-(4-Phenylcyclohexyl)-5-(3-trifluoromethylbenzyl)-1H-pyrimidine-2,4-dione]",Changes in body weight,[1],No significant changes
same,Liver triglycerides,"[2]; high-fat diet for 3 weeks, starting at week 1, vs high-fat diet control (FIG. 6A)",rapid reduction
same,Plasma AST,"[2]; high-fat diet, no change in dose (FIG. 6B)",transient increase at 2 weeks but normalized by 3 weeks
same,NAFLD Activity Score (NAS),"[3]; AMLN diet, vs control (FIG. 7A)","reduced; also recorded: significant reductions; also recorded: either did not increase, or decreased"
same,Hepatic ballooning portion of the NAFLD score (liver cell degeneration),[3]; post- vs pre-study biopsy (FIG. 7B),reduced
same,"Fibrosis stage score, post-study compared to pre-study",[3]; none showed an increased score,some mice in the miricorilant group showed decreased post-study fibrosis stage score

# Reference: patent publication US12616698B2, “Methods for reducing liver fat and for treating fatty liver disorders” (Corcept Therapeutics Incorporated, priority 2021, dated 2026)
